From patent US10703755B2, “Substituted purine derivative” (SUMITOMO DAINIPPON PHARMA CO., LTD., priority 2016, dated 2020)

Molecular target: human TLR7 (Homo sapiens (Human), UniProt Q9NYK1)
Test: Test for evaluating the inhibition of the activation of human TLR7 (SEAP reporter, TLR7/NF-κB/SEAPorter HEK293 cell)
Type: cell-based
Conditions: R-848 200 nmol/L; for inhibitory effect against TLR7 in the test for evaluating inhibition of the activation of TLR7: SEAP activity, result in words; for IC50: SEAP reporter
Experimental: As human TLR7 expressing cell line, HEK293 cell line was bought from IMGENEX Corporation (TLR7/NF-ηB/SEAPorter™ HEK293 cell), which is human embryonic kidney cell line and stably expresses full-length human TLR7 gene and secreted alkaline phosphatase (SEAP) reporter gene under the transcriptional control of an NE-ηB response element. The TLR7/NF-ηB/SEAPorter™ HEK293 cell was cultivated with DMEM containing 10% fetal bovine serum (FBS) and 10 μg/mL blasticidin S at 37° C. in the presence of 5% CO2. The TLR7/NF-ηB/SEAPorter™ HEK293 cell was seeded into 96-well microtiter plate at 5×10^4 cell/90 μL/well, and the place was cultivated at 37° C. in a CO2 incubator overnight.
Each compound prepared in the Examples was evaluated by Test 1.

human TLR7, sequence (Q9NYK1 27-1049): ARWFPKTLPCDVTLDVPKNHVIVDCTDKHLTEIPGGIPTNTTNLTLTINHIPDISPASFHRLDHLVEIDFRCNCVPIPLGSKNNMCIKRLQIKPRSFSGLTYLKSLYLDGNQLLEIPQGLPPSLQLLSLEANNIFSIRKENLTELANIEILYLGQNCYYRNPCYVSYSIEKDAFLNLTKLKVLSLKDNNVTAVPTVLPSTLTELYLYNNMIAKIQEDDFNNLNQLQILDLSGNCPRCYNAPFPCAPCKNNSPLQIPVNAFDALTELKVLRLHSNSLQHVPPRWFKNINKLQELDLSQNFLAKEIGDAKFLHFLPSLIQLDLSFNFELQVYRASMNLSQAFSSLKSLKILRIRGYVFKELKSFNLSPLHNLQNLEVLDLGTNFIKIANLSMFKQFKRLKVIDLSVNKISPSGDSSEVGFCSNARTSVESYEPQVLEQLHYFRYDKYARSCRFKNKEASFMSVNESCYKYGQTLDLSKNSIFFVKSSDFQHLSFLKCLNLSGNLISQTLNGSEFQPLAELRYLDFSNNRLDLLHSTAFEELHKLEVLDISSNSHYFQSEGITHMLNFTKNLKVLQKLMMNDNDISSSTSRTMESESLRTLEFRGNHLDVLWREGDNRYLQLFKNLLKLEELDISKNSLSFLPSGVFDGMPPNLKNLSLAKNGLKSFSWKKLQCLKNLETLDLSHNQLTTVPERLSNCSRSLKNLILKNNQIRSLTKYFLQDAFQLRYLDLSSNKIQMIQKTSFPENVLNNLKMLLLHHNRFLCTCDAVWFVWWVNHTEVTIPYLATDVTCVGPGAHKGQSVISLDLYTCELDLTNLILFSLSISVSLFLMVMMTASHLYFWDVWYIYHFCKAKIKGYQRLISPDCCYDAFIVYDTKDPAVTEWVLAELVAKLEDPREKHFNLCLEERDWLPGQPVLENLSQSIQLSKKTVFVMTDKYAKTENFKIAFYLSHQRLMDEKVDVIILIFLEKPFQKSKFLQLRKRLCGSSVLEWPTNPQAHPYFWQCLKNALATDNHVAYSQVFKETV

| Structure (SMILES) | IC50 [µM] | inhibitory effect against TLR7 in the test for evaluating inhibition of the activation of TLR7 |
| --- | --- | --- |
| COc1nc(C)c2nc(-c3cncc(F)c3)n(Cc3ccc(O[C@@H]4C[C@H]5CC[C@@H](C4)N5C)cc3F)c2n1 [Example 418, 9-(2-fluoro-4-{[(3-exo)-8-methyl-8-azabicyclo[3.2.1]oct-3-yl]oxy}benzyl)-8-(5-fluoropyridin-3-yl)-2-methoxy-6-methyl-9H-purine] | 0.019 | potent inhibitory effect against TLR7 |
| CCOc1nc(N)c2nc(-c3cncc(F)c3)n(Cc3cnn(C)c3)c2n1 [Example 37] | 2.7 |  |
| COc1nc(C)c2nc(-c3cccc(C#N)c3)n(Cc3ccc(C4CN5CCC4CC5)cc3F)c2n1 (stereo not shown) [Example 344, 3-{9-[4-(1-azabicyclo[2.2.2]oct-3-yl)-2-fluorobenzyl]-2-methoxy-6-methyl-9H-purin-8-yl}benzonitrile] | 0.012 | potent inhibitory effect against TLR7 |
| CCCCOc1nc(N)c2nc(-c3cccc(OC)c3)n(Cc3ccccc3)c2n1 [Example 12] | 9.2 |  |
| CCCCOc1nc(N)c2nc(-c3cccnc3)n(Cc3cccnc3)c2n1 [Example 3] | 9.2 |  |
| CCOc1nc(N)c2nc(-c3cncc(F)c3)n(Cc3cccc(OCCN4CCCC4)c3)c2n1 [Example 51] | 0.059 | potent inhibitory effect against TLR7 |
| COc1nc(C)c2nc(-c3cncc(C#N)c3)n(Cc3ccc(O[C@H]4C[C@H]5CC[C@@H](C4)N5)cc3F)c2n1 [Example 436] | 0.037 | potent inhibitory effect against TLR7 |
| CCOc1nc(N)c2nc(-c3cncc(F)c3)n(Cc3ccc(CN4C[C@@H]5C[C@H]4CN5C)cc3)c2n1 [Example 94] | 0.02 | potent inhibitory effect against TLR7 |
| COCCOc1nc(N)c2nc(-c3cncc(F)c3)n(Cc3cccc(CN4CCOCC4)c3)c2n1 [Example 90] | 4.2 |  |
| COc1nc(C)c2nc(-c3cncc(F)c3)n(Cc3ccc(C4CN5CCC4CC5)cc3F)c2n1 (single isomer, unassigned) [Example 393, 9-[4-(1-azabicyclo[2.2.2]oct-3-yl)-2-fluorobenzyl]-8-(5-fluoropyridin-3-yl)-2-methoxy-6-methyl-9H-purine] | 0.001 |  |
| CCOc1nc(N)c2nc(-c3cncc(F)c3)n(Cc3ccc(CN4[C@@H]5CC[C@H]4CN(C)C5)cc3)c2n1 [Example 95] | 0.05 | potent inhibitory effect against TLR7 |
| CCOc1nc(N)c2nc(-c3cncc(F)c3)n(Cc3ccc(N(C)CCN(C)C)nc3)c2n1 [Example 64, N-(5-{[6-Amino-2-ethoxy-8-(5-fluoropyridin-3-yl)-9H-purin-9-yl]methyl}pyridin-2-yl)-N,N′,N′-trimethylethane-1,2-diamine] | 0.68 |  |
| COc1nc(C)c2nc(-c3cncc(F)c3)n(Cc3cc(C4CN5CCC4CC5)ccc3F)c2n1 (stereo not shown) [Example 443, 9-[5-(1-azabicyclo[2.2.2]oct-3-yl)-2-fluorobenzyl]-8-(5-fluoropyridin-3-yl)-2-methoxy-6-methyl-9H-purine] | 0.017 | potent inhibitory effect against TLR7 |
| COCCOc1nc(N)c2nc(-c3cncc(F)c3)n(Cc3ccc(CN4CCC(F)(F)CC4)cc3)c2n1 [Example 92] | 0.37 |  |
| CCOc1nc(N)c2nc(-c3cncc(F)c3)n(Cc3ccccc3F)c2n1 [Example 44] | 0.75 |  |
| Cc1nc(O)nc2c1nc(-c1cncc(F)c1)n2Cc1ccc(C2CN3CCC2CC3)cc1 (stereo not shown) [Example 388, 9-[4-(1-Azabicyclo[2.2.2]oct-3-yl)benzyl]-8-(5-fluoropyridin-3-yl)-6-methyl-9H-purin-2-ol] | 1.35 |  |
| COCCOc1nc(N)c2nc(-c3cncc(F)c3)n(Cc3ccc(CN4CCCCC4)cc3)c2n1 [Example 91] | 0.25 |  |
| CCOc1nc(C)c2nc(-c3cncc(F)c3)n(Cc3ccc(C4CN5CCC4CC5)cc3F)c2n1 (stereo not shown) [Example 172] | 0.003 | potent inhibitory effect against TLR7 |
| COc1nc(C)c2nc(-c3cncc(F)c3)n(Cc3ccc(C4CN5CCC4CC5)cc3F)c2n1 (stereo not shown) [Example 314] | 0.008 | potent inhibitory effect against TLR7 |
| CCOc1nc(N)c2nc(-c3cncc(F)c3)n(Cc3ccc(O[C@H]4CCN(C)C4)nc3)c2n1 [Example 39] | 0.82 |  |
| CCCCOc1nc(N)c2nc(-c3cnc(N)nc3)n(Cc3ccccc3)c2n1 [Example 6] | 9.6 |  |
| COc1nc(C)c2nc(-c3cncc(F)c3)n(Cc3ccc(C4CN5CCC4CC5)cc3F)c2n1 (stereo not shown) [Example 393, 9-[4-(1-azabicyclo[2.2.2]oct-3-yl)-2-fluorobenzyl]-8-(5-fluoropyridin-3-yl)-2-methoxy-6-methyl-9H-purine] |  | potent inhibitory effect against TLR7 |
| COc1nc(C)c2nc(-c3cncc(F)c3)n(Cc3ccc(O[C@H]4CN5CCC4CC5)cc3F)c2n1 [Example 413, 9-{4-[(3R)-1-azabicyclo[2.2.2]oct-3-yloxy]-2-fluorobenzyl}-8-(5-fluoropyridin-3-yl)-2-methoxy-6-methyl-9H-purine] | 0.009 | potent inhibitory effect against TLR7 |
| CCOc1nc(N)c2nc(-c3cncc(F)c3)n(Cc3ccc(C4CN5CCC4CC5)cc3)c2n1 (stereo not shown) [Example 46] | 0.025 | potent inhibitory effect against TLR7 |

Second part, led by results:

| IC50 [µM] | Structure (SMILES) | inhibitory effect against TLR7 in the test for evaluating inhibition of the activation of TLR7 |
| --- | --- | --- |
| 0.036 | COc1nc(C)c2nc(-c3cccnc3)n(Cc3ccc(C4CCNCC4)cc3F)c2n1 [Example 345] | potent inhibitory effect against TLR7 |
| 0.011 | COc1nc(C)c2nc(-c3cncc(F)c3)n(Cc3cccc(C4=CN5CCC4CC5)c3)c2n1 [Example 364] |  |
| 0.2 | CCOc1nc(C)c2nc(-c3cncc(F)c3)n(Cc3cnn(CC4CN(C)CCO4)c3)c2n1 (stereo not shown) [Example 273] |  |
| 0.027 | CCOc1nc(C)c2nc(-c3cncc(F)c3)n(Cc3ccc(CN4CCN(C)CC4)cc3)c2n1 [Example 262] | potent inhibitory effect against TLR7 |
| 13.6 | CCCCNc1nc(N)c2nc(-c3cncc(F)c3)n(Cc3ccc(CN(C)C)cc3)c2n1 [Example 154] |  |
| 6.48 | COc1nc(C)c2nc(-c3cncc(F)c3)n(Cc3ccc(Br)c(F)c3)c2n1 [Example 332] |  |
| 0.1 | CCCCOc1nc(C)c2nc(-c3cncc(F)c3)n(Cc3ccc(CN4CCOCC4)cc3)c2n1 [Example 112] |  |
| 0.062 | CCOc1nc(N)c2nc(-c3cncc(F)c3)n(Cc3ccc(CN4CC(C)(O)C4)cc3)c2n1 [Example 106] | potent inhibitory effect against TLR7 |
| 0.028 | COc1nc(C)c2nc(-c3cncc(F)c3)n(Cc3ccc(CN(C)C)cc3F)c2n1 [Example 259, 1-(3-fluoro-4-{[8-(5-fluoropyridin-3-yl)-2-methoxy-6-methyl-9H-purin-9-yl]methyl}phenyl)-N,N-dimethylmethanamine] | potent inhibitory effect against TLR7 |
| 1.34 | COc1nc(C)c2nc(-c3cncc(F)c3)n(Cc3ccc(Br)cc3F)c2n1 [Example 337] |  |
| 1.3 | CN(C)Cc1ccc(Cn2c(-c3cncc(F)c3)nc3c(N)nc(OCC4CC4)nc32)cc1 [Example 160] |  |
| 0.1 | CCOc1nc(C)c2nc(-c3cncc(F)c3)n(Cc3cnn(CCCN4CCOCC4)c3)c2n1 [Example 249] |  |
| 0.5 | COc1nc(N)c2nc(-c3cncc(F)c3)n(Cc3ccc(CN(C)C)cc3)c2n1 [Example 150] |  |
| 0.026 | CCOc1nc(C)c2nc(-c3cncc(F)c3)n(Cc3ccc(CN4CCN5CC[C@@H]4C5)cc3)c2n1 [Example 174, 9-{4-[(5R)-1,4-diazabicyclo[3.2.1]oct-4-ylmethyl]benzyl}-2-ethoxy-8-(5-fluoropyridin-3-yl)-6-methyl-9H-purine] | potent inhibitory effect against TLR7 |
| 0.16 | CCOc1nc(C)c2nc(-c3cncc(F)c3)n(Cc3ccc(CN4CC(C#N)C4)cc3)c2n1 [Example 116] |  |
| 0.18 | COc1nc(C)c2nc(-c3cncc(F)c3)n(Cc3cnn(CCCN(C)C)c3)c2n1 [Example 251] |  |
| 0.139 | COc1nc(C)c2nc(-c3cncc(F)c3)n(Cc3ccc(OCCN(C)C)cc3F)c2n1 [Example 420] |  |
| 1.57 | CCOc1nc(N)c2nc(-c3cncc(F)c3)n(Cc3ccc(C(=O)N4CCN(C)CC4)cc3)c2n1 [Example 143, (4-{[6-Amino-2-ethoxy-8-(5-fluoropyridin-3-yl)-9H-purin-9-yl]methyl}phenyl) (4-methylpiperazin-1-yl)methanone] |  |
| 1.16 | CCOC1CN(Cc2ccc(Cn3c(-c4cncc(F)c4)nc4c(C)nc(OC)nc43)c(F)c2)C1 [Example 261] |  |
| 0.071 | CCOc1nc(N)c2nc(-c3cncc(F)c3)n(Cc3ccc(CN4C[C@@H]5C[C@H]4CN5C4COC4)cc3)c2n1 [Example 129] | potent inhibitory effect against TLR7 |
| 1.4 | CCOc1nc(C)c2nc(-c3cncc(F)c3)n(Cc3cccnc3)c2n1 [Example 168] |  |
| 2.02 | CCOc1nc(N)c2nc(-c3cncc(F)c3)n(Cc3cccc(C#N)c3)c2n1 [Example 237] |  |
| 0.84 | CCOc1nc(N)c2nc(-c3cncc(F)c3)n(Cc3ccc4c(c3)CN(C)C4)c2n1 [Example 137] |  |
